# Experimental data reported in article PMC3110694 (Science (New York, N.Y.), 2010).
# “Also recorded” adds a separate entry of the source.
# Tests used:
# E. coli β-glucuronidase = E. coli β-glucuronidase (Escherichia coli, UniProt P05804); assay: E. coli β-glucuronidase in vitro inhibition assay; assay type: biochemical; conditions: errors SD, N = 3
# [1] = biological target: β-glucuronidase activity in cultured E. coli cells (Escherichia coli, UniProt P05804); assay: β-glucuronidase activity in living E. coli cells; assay type: cell-based
# Balb/cJ mice = assay: CPT-11-induced delayed diarrhea and intestinal damage in mice
# Chain of β-glucuronidase activity in cultured E. coli cells (P05804 whole entry): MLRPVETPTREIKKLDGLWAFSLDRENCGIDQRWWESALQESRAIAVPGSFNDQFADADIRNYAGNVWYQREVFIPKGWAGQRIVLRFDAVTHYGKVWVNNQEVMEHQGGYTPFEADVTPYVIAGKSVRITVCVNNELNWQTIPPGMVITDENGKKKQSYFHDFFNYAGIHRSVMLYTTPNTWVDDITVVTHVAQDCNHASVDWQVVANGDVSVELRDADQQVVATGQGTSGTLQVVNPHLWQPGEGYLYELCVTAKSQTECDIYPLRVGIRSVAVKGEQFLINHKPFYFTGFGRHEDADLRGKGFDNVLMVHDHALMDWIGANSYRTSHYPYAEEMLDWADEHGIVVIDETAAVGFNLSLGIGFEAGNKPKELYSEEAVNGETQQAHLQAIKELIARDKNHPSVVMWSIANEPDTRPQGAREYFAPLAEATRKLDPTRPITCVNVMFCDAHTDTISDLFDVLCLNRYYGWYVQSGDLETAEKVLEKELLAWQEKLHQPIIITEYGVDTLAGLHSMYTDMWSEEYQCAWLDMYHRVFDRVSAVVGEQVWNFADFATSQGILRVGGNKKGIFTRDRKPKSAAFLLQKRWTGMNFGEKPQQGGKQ
# Chain of E. coli β-glucuronidase (P05804 whole entry): as above
Molecule,IC50 (E. coli β-glucuronidase) [µM],Ki (E. coli β-glucuronidase) [µM],"EC50 ([1]; E. coli cell-based, errors SD, N = 3)","effect on β-glucuronidase activity in cultured E. coli cells ([1]; cultured E. coli, listed as GDL)","diarrhea and bloody diarrhea, CPT-11 only (Balb/cJ mice; group 3: CPT-11 50 mg per kg i.p. once daily, no Inhibitor 1, days 8 to 10)","colonic tissue histology, CPT-11 only (Balb/cJ mice; group 3: CPT-11 only)","euthanasia, CPT-11 only (Balb/cJ mice; group 3: CPT-11 only, by day 11)"
glucaro-δ-lactam [reference compound],26.4 ± 0.483,7.75 ± 0.475,N.E.,did not disrupt β-glucuronidase activity; also recorded: no effect,,,
"CCc1c2c(nc3ccc(OC(=O)N4CCC(N5CCCCC5)CC4)cc13)-c1cc3c(c(=O)n1C2)COC(=O)[C@]3(O)CC [CPT-11, irinotecan, reference compound]",,,,,all the animals; also recorded: produced bloody diarrhea starting after 8 days and peaking at 10 days,destroyed these tissues; also recorded: highly disrupted tissues,all the group 3 animals had to be euthanized
